Laboratory results: US10301261B2, “Substituted indoles as modulators of ROR-gamma” (Vitae Pharmaceuticals, LLC, priority 2015, dated 2019)

Experiments:
[1] = biological target: recombinant RORγ Ligand Binding Domain (LBD) protein (Homo sapiens (Human), UniProt P51449); experiment: Radio-Ligand RORγ Binding Assay (Assay 1); settings: radio-ligand 25-hydroxy [26,27-3H]-cholesterol competition
Description: Radio-Ligand RORγ Binding Assay (Assay 1)
Compounds described herein were tested for ability to bind to RORγ in a cell-free competition assay with commercially available radio-ligand (RL), 25-hydroxy [26,27-^3H]-cholesterol (PerkinElmer, Cat. # NET674250UC), for a ligand binding site on a recombinant RORγ Ligand Binding Domain (LBD) protein expressed as a 6×His-Glutathione-S-Transferase (GST) fusion. […] The plate was shaken at 700 rpm for 20 min and incubated for 10 min at rt, after which 40 μL of poly-Lys YSi SPA beads (PerkinElmer, Cat. # RPNQ0010) were added to achieve 50 μg of the beads per well. The plate was incubated on an orbital shaker for 20 min and then for 10 min without agitation at rt. SPA signal for tritium beta radiation was registered on PerkinElmer Microbeta plate reader. […] The percent inhibition vs. concentration data were fit into a four-parameter model, and IC50 values were calculated from the fit as the concentrations corresponding to the inflection points on the dose-response curves. […]

[2] = biological target: full-length RORγt in Jurkat cells (Homo sapiens (Human), UniProt P51449); experiment: RORγt 5×RORE Assay in Jurkat Cells (Assay 2); assay type: cell-based; settings: RORγt 5×RORE Nanoluc reporter
Description: [formula] RORγt 5×RORE Assay in Jurkat Cells (Assay 2)
Compounds described herein were tested for RORγ inverse agonist activity in a cell-based, transcriptional activity assay. […] (Promega, Cat. # N1021) using KpnI and HindIII restriction sites. […] Tested compounds were added to the cells in the same media (final concentration of DMSO was 0.1% (v/v)), and the plates were incubated at 37° C./5% CO2 for 16-18 hrs. Luciferase activity in the conditioned supernatants was determined with NanoGlo® assay reagents (Promega, Cat.# N1130).

Sequence of recombinant RORγ Ligand Binding Domain (LBD) protein (P51449 269-508): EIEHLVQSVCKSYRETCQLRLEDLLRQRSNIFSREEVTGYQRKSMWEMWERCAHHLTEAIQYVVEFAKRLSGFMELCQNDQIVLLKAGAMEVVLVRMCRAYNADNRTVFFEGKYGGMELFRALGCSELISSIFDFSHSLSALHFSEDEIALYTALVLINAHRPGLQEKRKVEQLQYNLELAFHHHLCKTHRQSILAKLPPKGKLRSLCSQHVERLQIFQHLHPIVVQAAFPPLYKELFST
Sequence of full-length RORγt in Jurkat cells (P51449 other isoform, or with tags, fused parts or gaps): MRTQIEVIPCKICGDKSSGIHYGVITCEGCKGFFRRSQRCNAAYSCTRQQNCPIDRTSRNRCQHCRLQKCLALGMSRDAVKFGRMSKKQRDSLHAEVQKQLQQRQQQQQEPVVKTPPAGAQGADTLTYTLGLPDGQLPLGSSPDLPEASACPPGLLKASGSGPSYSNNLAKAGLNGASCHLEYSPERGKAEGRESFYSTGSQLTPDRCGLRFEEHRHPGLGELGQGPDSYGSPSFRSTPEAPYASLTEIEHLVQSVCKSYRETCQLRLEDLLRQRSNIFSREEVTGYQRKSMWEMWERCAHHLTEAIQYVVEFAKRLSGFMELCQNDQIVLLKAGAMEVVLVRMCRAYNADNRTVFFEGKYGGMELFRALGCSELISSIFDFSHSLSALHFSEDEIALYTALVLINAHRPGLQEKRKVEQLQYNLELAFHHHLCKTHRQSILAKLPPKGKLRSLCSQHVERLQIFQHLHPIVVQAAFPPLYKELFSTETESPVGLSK

Structure (SMILES)	Ki [1]	IC50 [2]
CCS(=O)(=O)c1ccc([C@H](CO)NC(=O)c2ccc3c(c2)nc(OCC2CCC(F)(F)CC2)n3C2CC2)cc1 [BE-16, (R)-1-cyclopropyl-2-((4,4-difluorocyclohexyl)methoxy)-N-(1-(4-(ethylsulfonyl)phenyl)-2-hydroxyethyl)-1H-benzo[d]imidazole-5-carboxamide]	< 100 nM	< 100 nM
CCn1c(OCC2CC2)nc2cc(C(=O)N[C@@H](CO)c3ccc(S(=O)(=O)CC)cc3)ccc21 [BE-17, (R)-2-(cyclopropylmethoxy)-1-ethyl-N-(1-(4-(ethylsulfonyl)phenyl)-2-hydroxyethyl)-1H-benzo[d]imidazole-5-carboxamide]	< 100 nM	> 1000 nM
CCS(=O)(=O)c1ccc(CNC(=O)c2ccc3c(c2)nc(C[C@H]2CC[C@H](C(F)(F)F)CC2)n3C2CC2)cc1 [BE-18.1, 1-cyclopropyl-N-(4-(ethylsulfonyl)benzyl)-2-((trans-4-(trifluoromethyl)cyclohexyl)methyl)-1H-benzo[d]imidazole-5-carboxamide]	< 100 nM	< 100 nM
CCS(=O)(=O)c1ccc(CNC(=O)c2ccc3c(c2)nc(C[C@H]2CC[C@@H](C(F)(F)F)CC2)n3C2CC2)cc1 [BE-18.2, 1-cyclopropyl-N-(4-(ethylsulfonyl)benzyl)-2-((cis-4-(trifluoromethyl)cyclohexyl)methyl)-1H-benzo[d]imidazole-5-carboxamide]	< 100 nM	> 1000 nM
CCS(=O)(=O)c1ccc(CNC(=O)c2ccc3c(c2)nc(C[C@H]2CC[C@H](C(F)(F)F)CC2)n3CC(C)C)cc1 [BE-19.1, N-(4-(ethylsulfonyl)benzyl)-1-isobutyl-2-(((1r,4r)-4-(trifluoromethyl)cyclohexyl)methyl)-1H-benzo[d]imidazole-5-carboxamide]	< 100 nM	< 100 nM
CCS(=O)(=O)c1ccc(CNC(=O)c2ccc3c(c2)nc(C[C@H]2CC[C@@H](C(F)(F)F)CC2)n3CC(C)C)cc1 [BE-19.2, N-(4-(ethylsulfonyl)benzyl)-1-isobutyl-2-(((1s,4s)-4-(trifluoromethyl)cyclohexyl)methyl)-1H-benzo[d]imidazole-5-carboxamide]	< 100 nM	> 1000 nM
CCn1c(C[C@H]2CC[C@H](C(F)(F)F)CC2)nc2cc(C(=O)NCc3ccc(S(=O)(=O)CC)cc3)ccc21 [BE-20, 1-ethyl-N-(4-(ethylsulfonyl)benzyl)-2-(((1r,4r)-4-(trifluoromethyl)cyclohexyl)methyl)-1H-benzo[d]imidazole-5-carboxamide]	< 100 nM	< 100 nM
CCS(=O)(=O)c1ccc([C@H](CCO)NC(=O)c2ccc3c(c2)nc(C[C@H]2CC[C@H](C(F)(F)F)CC2)n3C2CC2)cc1 [BE-25, 1-cyclopropyl-N-((S)-1-(4-(ethylsulfonyl)phenyl)-3-hydroxypropyl)-2-(((1r,4S)-4-(trifluoromethyl)cyclohexyl)methyl)-1H-benzo[d]imidazole-5-carboxamide]	< 100 nM	< 100 nM
CCS(=O)(=O)c1ccc(CNC(=O)c2ccc3c(c2)nc(C[C@H]2CC[C@H](C(F)(F)F)CC2)n3CC(C)C)nc1 [BE-26.1, N-((5-(ethylsulfonyl)pyridin-2-yl)methyl)-1-isobutyl-2-(((1r,4r)-4-(trifluoromethyl)cyclohexyl)methyl)-1H-benzo[d]imidazole-5-carboxamide]	< 100 nM	> 1000 nM
CCS(=O)(=O)c1ccc(CNC(=O)c2ccc3c(c2)nc(C[C@H]2CC[C@@H](C(F)(F)F)CC2)n3CC(C)C)nc1 [BE-26.2, N-((5-(ethylsulfonyl)pyridin-2-yl)methyl)-1-isobutyl-2-(((1s,4s)-4-(trifluoromethyl)cyclohexyl)methyl)-1H-benzo[d]imidazole-5-carboxamide]	< 100 nM	> 1000 nM
CCS(=O)(=O)c1ccc(CNC(=O)c2ccc3c(c2)nc(C[C@H]2CC[C@H](C(F)(F)F)CC2)n3C2CC2)nc1 [BE-27.1, 1-cyclopropyl-N-((5-(ethylsulfoyl)pyridin-2-yl)methyl)-2-(((1r,4r)-4-(trifluoromethyl)cyclohexyl)methyl)-1H-benzo[d]imidazole-5-carboxamide]	< 100 nM	< 100 nM
CCS(=O)(=O)c1ccc(CNC(=O)c2ccc3c(c2)nc(C[C@H]2CC[C@@H](C(F)(F)F)CC2)n3C2CC2)nc1 [BE-27.2, 1-cyclopropyl-N-((5-(ethylsulfonyl)pyridin-2-yl)methyl)-2-(((1s,4s)-4-(trifluoromethyl)cyclohexyl)methyl)-1H-benzo[d]imidazole-5-carboxamide]	< 100 nM	> 1000 nM
CCS(=O)(=O)c1ccc([C@H](CO)NC(=O)c2ccc3c(c2)nc(C[C@H]2CC[C@H](C(F)(F)F)CC2)n3C2CC2)nc1 [BE-28, 1-cyclopropyl-N-((R)-1-(5-(ethylsulfonyl)pyridin-2-yl)-2-hydroxyethyl)-2-(((1r,4R)-4-(trifluoromethyl)cyclohexyl)methyl)-1H-benzo[d]imidazole-5-carboxamide]	< 100 nM	< 100 nM
CS(=O)(=O)c1ccc(CNC(=O)c2ccc3c(c2)nc(C[C@H]2CC[C@H](C(F)(F)F)CC2)n3C2CC2)cc1 [BE-30, 1-cyclopropyl-N-(4-(methylsulfonyl)benzyl)-2-(((1r,4r)-4-(trifluoromethyl)cyclohexyl)methyl)-1H-benzo[d]imidazole-5-carboxamide]	< 100 nM	< 100 nM
CNS(=O)(=O)c1ccc(CNC(=O)c2ccc3c(c2)nc(C[C@H]2CC[C@H](C(F)(F)F)CC2)n3C2CC2)nc1 [BE-31, 1-cyclopropyl-N-((5-(N-methylsulfamoyl)pyridin-2-yl)methyl)-2-(((1r,4r)-4-(trifluoromethyl)cyclohexyl)methyl)-1H-benzo[d]imidazole-5-carboxamide]	< 100 nM	> 1000 nM
CS(=O)(=O)c1ccc([C@H](CO)NC(=O)c2ccc3c(c2)nc(C[C@H]2CC[C@H](C(F)(F)F)CC2)n3C2CC2)cc1 [BE-32, 1-cyclopropyl-N-((R)-2-hydroxy-1-(4-(methylsulfonyl)phenyl)ethyl)-2-(((1r,4R)-4-(trifluoromethyl)cyclohexyl)methyl)-1H-benzo[d]imidazole-5-carboxamide]	< 100 nM	< 100 nM
CNS(=O)(=O)c1ccc(CNC(=O)c2ccc3c(c2)nc(C[C@H]2CC[C@H](C(F)(F)F)CC2)n3C2CC2)cc1 [BE-33, 1-cyclopropyl-N-(4-(N-methylsulfamoyl)benzyl)-2-(((1r,4r)-4-(trifluoromethyl)cyclohexyl)methyl)-1H-benzo[d]imidazole-5-carboxamide]	< 100 nM	< 100 nM
CCn1c(Cc2ccc(C(F)(F)F)cc2)nc2cc(C(=O)NCc3ccc(S(=O)(=O)CC)cc3)ccc21 [BE-35, 1-ethyl-N-(4-(ethylsulfonyl)benzyl)-2-(4-(trifluoromethyl)benzyl)-1H-benzo[d]imidazole-5-carboxamide]	< 100 nM	< 100 nM
CCS(=O)(=O)c1ccc(CNC(=O)c2ccc3c(c2)nc(Cc2ccc(C(F)(F)F)cc2)n3C2CC2)cc1 [BE-36, 1-cyclopropyl-N-(4-(ethylsulfonyl)benzyl)-2-(4-(trifluoromethyl)benzyl)-1H-benzo[d]imidazole-5-carboxamide]	< 100 nM	< 100 nM
CCS(=O)(=O)c1ccc(CNC(=O)c2ccc3c(c2)nc(Cc2ccc(C(F)(F)F)cc2)n3CC(F)(F)F)cc1 [BE-37, N-(4-(ethylsulfonyl)benzyl)-1-(2,2,2-trifluoroethyl)-2-(4-(trifluoromethyl)benzyl)-1H-benzo[d]imidazole-5-carboxamide]	< 100 nM	< 100 nM
CCS(=O)(=O)c1ccc(CNC(=O)c2ccc3c(c2)nc(C[C@H]2CC[C@H](OC)CC2)n3C2CC2)cc1 [BE-46.1, 1-cyclopropyl-N-(4-(ethylsulfonyl)benzyl)-2-(((1r,4r)-4-methoxycyclohexyl)methyl)-1H-benzo[d]imidazole-5-carboxamide]	< 100 nM	100 to 1000 nM
CCS(=O)(=O)c1ccc(CNC(=O)c2ccc3c(c2)nc(C[C@H]2CC[C@@H](OC)CC2)n3C2CC2)cc1 [BE-46.2, 1-cyclopropyl-N-(4-(ethylsulfonyl)benzyl)-2-(((1s,4s)-4-methoxycyclohexyl)methyl)-1H-benzo[d]imidazole-5-carboxamide]	< 100 nM	> 1000 nM
CCS(=O)(=O)c1ccc([C@H](CO)NC(=O)c2ccc3c(c2)nc(Cc2ccc(OC(F)(F)F)cc2)n3C2CC2)cc1 [BE-47, (R)-1-cyclopropyl-N-(1-(4-(ethylsulfonyl)phenyl)-2-hydroxyethyl)-2-(4-(trifluoromethoxy)benzyl)-1H-benzo[d]imidazole-5-carboxamide]	< 100 nM	< 100 nM
CCS(=O)(=O)c1ccc(CNC(=O)c2ccc3c(c2)nc(Cc2ccc(OC(F)F)cc2)n3C2CC2)cc1 [BE-48, 1-cyclopropyl-2-(4-(difluoromethoxy)benzyl)-N-(4-(ethylsulfonyl)benzyl)-1H-benzo[d]imidazole-5-carboxamide]	< 100 nM	< 100 nM
